Laboratory results reported in US11541044B2, “K-Ras modulators” (The Regents of the University of California, priority 2015, dated 2023).
Entries after “also recorded” stand apart in the source; their conditions may differ.

What was measured:
[1] = tested on: Ras-less cells exogenously expressing K-Ras G12D; assay: EGF stimulation plus FB9 in G12D expressing RAS-less MEFS; type: cell-based; settings: EGF for 30 and 60 minutes, FB9 at various concentrations
Protocol: FIG. 22. Cell Based Assays with G12D expressing RAS-less MEFS; Ras-less cells exogenously expressing K-Ras G12D were stimulated with EGF for 30 and 60 minutes. Concomitantly FB9 was added at various concentrations. Similar experiments were done with pancreatic cell lines expressing various oncogenic mutations. […] Growth curves were also performed.

fmeKRAS4b = target: T1, fmeKRAS4b (Homo sapiens, UniProt P01116); assay: MALDI-TOF analysis of modification of processed (farnesylated, carboxymethylated) KRAS4b; type: binding
T1 construct: GG (two N-terminal glycines in place of Met1, remnant of the construct) (N); made in house; host or cells: SF9 insect cells
Protocol: FIG. 36. Modification of fmeKRAS4b by FB9. Recombinant fmeKRAS4b was loaded with GDP or GppNHp (a nonhydrolyzable analogue of GTP), then reacted with FB9 at 37° C. for 100 min.
Modification of processed (farnesylated and carboxylmethylated KRAS4b). Protein prep GG-HsKRAS-4b, RP1151105092454 FmeKRAS4b (FIG. 47A) was modified by FB9 with 7.6-fold molar excess of FB9 for 1 h at 37° C., followed by 16 h at room temperature (22° C.). […] To identify the modified amino acid residues protein preparation was digested by trypsin.
During fragmentation, these modified peptides yielded intensive fragment corresponding to unmodified peptide and fragments of peptide (mostly without modification).
These peptides were modified on His residues. To identify which His was modified (i.e. 95 or 96 in the sequence of used recombinant KRAS) fragmentation spectra were analyzed in BioTools when FB9 modification (C17H20Cl1N2O4, 350/351) was set on one of these His residues in Sequence Editor.
In fragmentation spectrum of 1554 a fragment 825.409 was present but not in a spectrum of 1203. When FB9 modification was on His-7 this fragment was assigned by BioTools as modified y-3. Manual examination of the spectrum confirmed this conclusion.

[2] = target: T2, KRAS4b (1-188), unprocessed (Homo sapiens, UniProt P01116); assay: MALDI-TOF analysis of modification of unprocessed KRAS4b; type: binding
T2 construct: G (one extra N-terminal glycine before Met1, remnant of the construct) (N); made in house; host or cells: E. coli
Protocol: FIG. 27. Comparing Gel Mobility and Antibody Reactivity of Different Purified K-Ras 4B Forms. E. Coli: unprocessed K-ras 4B purified from E. coli. Fme: processed K-ras 4B purified from SF9 cells. FB9: unprocessed K-ras 4B labeled with FB9 to about 70%.
Chemical modification of unprocessed KRAS-4b at His-95 (protein G-Hs.KRAS4b(1-188), mass (average) 21481.59 Da.
KRAS4b (FIG. 43) was modified by FB9 in vitro (using 8.8-fold molar excess of FB9 for 1 h at 37° C., followed by 16 h at room temperature, 22° C.). […] Molecular species with 1 and 2 and 3 modification groups were present (FIG. 44).
To identify the modified amino acid residues, the protein preparation was digested by protease Glu-C. […] Peptide with m/z 1735 corresponds to sequence GKKKKKKSKTKCVIM (SEQ ID NO: 3) (174-189) and m/z 2085 corresponds to the same peptide modified by FB9 at Cys-186 (confirmed by fragmentation).
To identify other potential residues modified by FB9, peptides obtained after digestion by Glu-C were further digested by trypsin (FIG. 46A).

K-Ras G12D = target: T3, K-Ras G12D (Homo sapiens, UniProt P01116, G12D); assay: Covalent binding of electrophile compounds to K-Ras G12D (mass spectrometry)
T3 construct: Rec full length G12D became loaded with either GDP or GTPyS and Mg2+; His tag
Protocol: FIGS. 13A-13E. […] FIG. 13B and FIG. 13D were performed after 5 hours. FIG. 13C and FIG. 13E were performed at 23 hours.
FIGS. 15A-15D. Experiments with Stereoisomers of Difluorophenoxy-6B9; Kras G12D/GTPyS/Mg2+, DMSO control, 2 h incubation at RT; The binding of FB9 to Kras G12D was compared with the stereoisomers of Difluorophenoxy-6B9 (53, 54); FB9 bound 100% after 2 h incubation; Difluorophenoxy-6B9 (compound ‘53’) bound to about 62% compared to FB9 under the same condition; The stereoisomer (‘54’) of compound ‘53’ bound to roughly 35% compared to FB9 which is roughly 50% of compound ‘53’; Partial stereospecific interaction.

[3] = Reactivity of FB9 with BME; type: physicochemical; settings: 1 mM FB9, 5 mM BME, 37° C., 55 minutes
Protocol: FIGS. 20A-20C. Reactivity of Tetrafluorophenoxy-6B9 (FB9) with BME; experiment was done with 1 mM FB9 and minus or plus 5 mM BME at 37° C.

Kras = assay: Interaction of FB9 with Kras in the absence or presence of BME; type: binding, human; settings: RT

extent of chemical modification of unprocessed KRAS4b ([2]; 8.8-fold molar excess of FB9, 1 h at 37° C., then 16 h at 22° C.): close to complete
unprocessed K-ras 4B labeled with FB9 ([2]; protein preparation used for gel mobility comparison): about 70%
bound better than enantiomer FB9D (K-Ras G12D; K-Ras (G12D), GTPyS/Mg, 50 μM for 2.5 h at RT): 25-30%
bound to Kras G12D (K-Ras G12D; Kras G12D/GTPyS/Mg2+, 2 h incubation at RT): 100%
product formed with BME (reduction of the free compound peak) [3]: about 25%
SMILES: COc1ccc(Cl)cc1C(=O)N1CCC[C@H](C(=O)NCC(=O)COc2c(F)c(F)cc(F)c2F)C1 [FB9, (3S)-1-[(5-Chloro-2-methoxyphenyl)carbonyl]-N-[2-oxo-3-(2,3,5,6-tetrafluorophenoxy)propyl]piperidine-3-carboxamide]
K-Ras protein levels [1]: Changes at K-Ras protein levels are visible
extent of chemical modification of FmeKRAS4b (fmeKRAS4b; 7.6-fold molar excess of FB9, 1 h at 37° C., then 16 h at 22° C.): major form represented species with 1 added modification group
covalent modification, GDP versus GppNHp loaded protein (fmeKRAS4b; 37° C. for 100 min, 350 Da mass addition): more pronounced when GTP analogue was present
residue modified in FME-Kras4B (fmeKRAS4b; recombinant farnesylated-carboxymethylated protein): covalently modifies histidine 95 residue (H95); also recorded: His7 (i.e. H95 in the native protein) is modified
labelling at a second site (K-Ras G12D; K-Ras/GDP/Mg2+, 5 h): significantly labelled at a second site after 5 h
binding to GTPyS versus GDP bound K-Ras G12D (K-Ras G12D; ~10 μM protein, 100 μM compound, RT, 5 and 23 hours): bound better when K-Ras was in complex with GTPyS/Mg2+
reactivity with Kras when BME is titrated in (Kras): reactivity of the compound being reduced
